Series [1] can be described thus: Solubility in buffer by HPLC. The format is physicochemical. The method, then:
Soluble peptides were synthesized on Rink resin, cleaved and cyclized as described previously. Peptide purity (at least 95%) and solubility were verified by high-performance liquid chromatography and correct mass was verified by MS analysis. ALogP calculations are from. Peptides were prepared as 5 mM stocks in DMSO.

Another series deals with T1, RGS8 (Homo sapiens, UniProt P57771).
T1 construct: RGS8 full length; made in house
T1 sequence (P57771 1-180): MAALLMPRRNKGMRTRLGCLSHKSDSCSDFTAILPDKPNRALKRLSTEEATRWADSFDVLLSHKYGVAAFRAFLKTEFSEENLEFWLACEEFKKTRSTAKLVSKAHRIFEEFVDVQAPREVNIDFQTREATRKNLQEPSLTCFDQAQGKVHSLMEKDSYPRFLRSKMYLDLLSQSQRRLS
The series is described as follows: FCPIA, Gαo binding to RGS8. The method, then: (§1) We recently described a bead-based screen in which 2.5 × 10^6 different peptide sequences were prepared as a OBOC library. Fluorescently labeled RGS4 was used to probe the library for peptides that bind RGS4 [5]. […] Since the majority of those hit peptides could bind tightly to the RGS without disrupting GAP activity, they were also tested in the flow cytometry protein interaction assay (FCPIA) (Figure 1), which measures the interaction between RGS4 and Gαo. In this method we used a Luminex flow cytometer to detect the binding of Alexa Fluor 532-labeled Gαo to biotinylated RGS4 on avidin beads in the presence of AMF (AlCl3, MgCl2, NaF and GDP) to put the Gα subunit into a transition state-like conformation. Peptides were tested at 50 μM except where limited by solubility (Table 1).
(§2) 5nd inhibited Gαo binding to a number of different RGS proteins (Figure 2). […] RGS19 and RGS7 are in the RZ and R7 families, respectively and show less inhibition by 5nd. Linear as well as bridged versions of peptide 5 were tested in the FCPIA since cyclization yields would most likely have been less then 100% in the synthesis of the library leaving some linear peptides present on each bead. […] This may be due to lack of structural rigidity necessary for the correct interaction of the peptide with the RGS protein or a role for chemical reactivity of the disulfide.
Figure 2 Characterization of hit 5. A) and B) Dose response curves for 5nd in the FCPIA with different RGS proteins (RGS Family), (mean ± S.E.M., n = 3) *p < 0.05, **p < 0.01, ***p < 0.001 compared to RGS4 at the same 5nd concentration. C) Peptides were tested at 50 μM as in Figure 1, (mean ± S.E.M., n ≥ 3) *p < 0.05, **p < 0.01, ***p < 0.001 compared to no peptide.
Figure 3 Irreversibility experiments. RGS-biotin on avidin beads was treated with 5nd (100 μM) or 5nm (100 μM) and then washed in buffer (with or without 1 mM DTT) or not washed and put in the FCPIA using RGS4 (A) or RGS8 (B) (mean ± S.E.M., n ≥ 2) *p < 0.05, **p < 0.01, ***p < 0.001 compared to no peptide (100%); #p < 0.05, ##p < 0.01, ###p < 0.001 compared to 5nd no wash.
Proteins were expressed, purified and labeled as described previously. The mutagenesis was done using the "QuickChange Multi Site-Directed Mutagenesis Kit" from Stratagene according to the manufacturer's protocol. The construct of RGS4 used in these studies is a maltose binding protein (MBP-) fusion protein of the RGS4 sequence from which the amphipathic N-terminal helix has been removed (i.e. MBP-RGS4Δ51N). For simplicity in the text, this will be referred to as RGS4. All other RGS proteins were human sequences and were used as Mpb fusions: RGS7 RGS domain (aa: 305–453), RGS8 full length, RGS16 full length, and RGS19ΔC11 (amino acids 1–209). […]

In another series the target is T2, RGS4 A148C, -7C (Rattus norvegicus, UniProt P49799, C132A/C183A/C197A/C204A/C71A/C95A).
T2 construct: made in house
T2 sequence (P49799 52-205 C71A/C95A/C132A/C183A/C197A/C204A): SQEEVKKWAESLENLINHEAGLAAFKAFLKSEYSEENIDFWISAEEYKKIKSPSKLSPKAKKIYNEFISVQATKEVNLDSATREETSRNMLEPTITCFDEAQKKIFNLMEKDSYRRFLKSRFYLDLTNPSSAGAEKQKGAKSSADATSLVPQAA
In words: FCPIA, RGS4 A148C in the -7C. The format is binding. The settings on record: read-out: 5nd logIC50 (converted). The method, then: (§3) Figure 5 Dose curves of 5nd on various RGS4 cysteine mutants. Various concentrations of 5nd were tested for disruption of the RGS4-Gαo interaction for C95A (5 nM), or […], C71A (5nM) or C148A (5nM) (B), A95C in the -7C (5nM), or A132C in the -7C (5nM) (C), A71C in the -7C (5nM), or A148C in the -7C (5nM) (D) or the mutant with no cysteines in the domain (20 nM) or the C-terminus (20 nM) (E) in the FCPIA (mean ± S.E.M., n ≥ 3).
The previous experiments tested which cysteines are necessary for inhibition by 5nd. In an alternative approach, we added cysteines back to the -7C mutant to determine which might be sufficient for 5nd activity. […] Furthermore, Cys132 is involved in the actions but this is clearly not sufficient to explain them. Thus it is concluded that 5nd is at least partially non-selective in its cysteine modification.
(§4) Proteins were expressed, purified and labeled as described previously. The mutagenesis was done using the "QuickChange Multi Site-Directed Mutagenesis Kit" from Stratagene according to the manufacturer's protocol. The construct of RGS4 used in these studies is a maltose binding protein (MBP-) fusion protein of the RGS4 sequence from which the amphipathic N-terminal helix has been removed (i.e. MBP-RGS4Δ51N). For simplicity in the text, this will be referred to as RGS4. […]

In the next series the target is T3, RGS7 (Homo sapiens, UniProt P49802).
T3 construct: RGS7 RGS domain (aa: 305–453); made in house
T3 sequence (P49802 305-453): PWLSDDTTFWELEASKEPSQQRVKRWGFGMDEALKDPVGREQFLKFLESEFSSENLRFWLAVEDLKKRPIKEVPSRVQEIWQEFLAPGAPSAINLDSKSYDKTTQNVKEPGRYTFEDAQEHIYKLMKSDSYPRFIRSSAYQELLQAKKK
The series is described as follows: FCPIA, Gαo binding to RGS7. The note with it: Figure 2. How it is done: as §1, §2
Figure 2 Characterization of hit 5. […]

Series [2] relates to RGS4 no Cys in C-terminus. In words: FCPIA, RGS4 mutant with no Cys in C-terminus. The format is binding. How it is done:
Since 5nd forms an irreversible, DTT-sensitive bond with RGS, it was suspected that it binds covalently to a cysteine in the protein through a disulfide bridge. Indeed, removal of all 7 cysteines (termed the -7C mutant) from RGS4 greatly diminished 5nd activity (logIC50 of -3.24 ± 0.14 for -7C vs. -4.36 ± 0.02 for wild type) (Figure 5, Table 2).
as §3, §4

In brackets after ≈: the same amount, converted by molar mass. Several values for one entry are separate records, joined by “and”; a condition that tells them apart may be missing. Equal values may be shown once. Read-outs that look alike come from different tables or passages of the source. Where a SMILES comes first, the peptide text is derived from it. Bridges are numbered along the chain shown (N, C = ends).

As to `CC(C)C[C@@H]1NC(=O)CNC(=O)[C@H](CCCCN)NC(=O)[C@@H](NC(=O)[C@H](Cc2c[nH]c3ccccc23)NC(=O)[C@@H](N)Cc2ccc(O)cc2)CSSC[C@@H](C(=O)N[C@@H](CCCCN)C(N)=O)NC1=O` [Peptide 5nd, Tyr-Trp-c [Cys-Lys-Gly-Leu-Cys]-Lys-NH2, S-S] (H-YWCKGLCK-NH2; disulfide 3-7), in series [1], the solubility (commonly how much of the substance goes into solution per volume) was found to be 463 µM (≈ 462 µg/mL). Further, the inhibition – broadly, the share of the control response that was lost under treatment – at 100 µM at RGS8 (beads washed in buffer with 1 mM DTT, read-out: percent inhibition, RGS8, DTT wash) turned out to be 10 ± 3%; on RGS8 (beads washed in buffer without DTT, read-out: percent inhibition, RGS8, wash) it was 50 ± 3%; on RGS8 (no wash, read-out: percent inhibition, RGS8), 64 ± 2%. Moreover, the IC50 on RGS4 A148C, -7C is 309 µM; on RGS7 (read-out: logIC50, RGS7 (converted)), roughly 174 µM; on RGS7 (dose response, read-out: IC50, Gαo binding to RGS7), 175 µM and ~175 µM. In addition, in series [2], the “5nd logIC50” value is listed as -4.39 ± 0.07 M.
